Data taken from paper PMC9504648 (Marine Drugs, 2022).

What was measured:
[1] = biological target: T1, NMDA receptor (NMDAR; GluN2B-containing) (Mus musculus, UniProt P35438+Q01097); assay: Fluo-3 Ca2+ influx in primary neurons; […] inhibits NMDA response ([…] AUC); IC50 is against PbTx-2-induced influx; assay type: cell-based
T1 construct: gene Grin2b; native receptor in DIV 10–12 cerebrocortical neurons; with GluN1

[2] = biological target: T1, NMDA receptor (NMDAR; GluN2B-containing); assay: Fluo-3 NMDA-induced Ca2+ influx in primary neurons, single concentration ([…], […] reduction in AUC); assay type: cell-based

T1 sequence (Q01097 27-1482, other chains not shown): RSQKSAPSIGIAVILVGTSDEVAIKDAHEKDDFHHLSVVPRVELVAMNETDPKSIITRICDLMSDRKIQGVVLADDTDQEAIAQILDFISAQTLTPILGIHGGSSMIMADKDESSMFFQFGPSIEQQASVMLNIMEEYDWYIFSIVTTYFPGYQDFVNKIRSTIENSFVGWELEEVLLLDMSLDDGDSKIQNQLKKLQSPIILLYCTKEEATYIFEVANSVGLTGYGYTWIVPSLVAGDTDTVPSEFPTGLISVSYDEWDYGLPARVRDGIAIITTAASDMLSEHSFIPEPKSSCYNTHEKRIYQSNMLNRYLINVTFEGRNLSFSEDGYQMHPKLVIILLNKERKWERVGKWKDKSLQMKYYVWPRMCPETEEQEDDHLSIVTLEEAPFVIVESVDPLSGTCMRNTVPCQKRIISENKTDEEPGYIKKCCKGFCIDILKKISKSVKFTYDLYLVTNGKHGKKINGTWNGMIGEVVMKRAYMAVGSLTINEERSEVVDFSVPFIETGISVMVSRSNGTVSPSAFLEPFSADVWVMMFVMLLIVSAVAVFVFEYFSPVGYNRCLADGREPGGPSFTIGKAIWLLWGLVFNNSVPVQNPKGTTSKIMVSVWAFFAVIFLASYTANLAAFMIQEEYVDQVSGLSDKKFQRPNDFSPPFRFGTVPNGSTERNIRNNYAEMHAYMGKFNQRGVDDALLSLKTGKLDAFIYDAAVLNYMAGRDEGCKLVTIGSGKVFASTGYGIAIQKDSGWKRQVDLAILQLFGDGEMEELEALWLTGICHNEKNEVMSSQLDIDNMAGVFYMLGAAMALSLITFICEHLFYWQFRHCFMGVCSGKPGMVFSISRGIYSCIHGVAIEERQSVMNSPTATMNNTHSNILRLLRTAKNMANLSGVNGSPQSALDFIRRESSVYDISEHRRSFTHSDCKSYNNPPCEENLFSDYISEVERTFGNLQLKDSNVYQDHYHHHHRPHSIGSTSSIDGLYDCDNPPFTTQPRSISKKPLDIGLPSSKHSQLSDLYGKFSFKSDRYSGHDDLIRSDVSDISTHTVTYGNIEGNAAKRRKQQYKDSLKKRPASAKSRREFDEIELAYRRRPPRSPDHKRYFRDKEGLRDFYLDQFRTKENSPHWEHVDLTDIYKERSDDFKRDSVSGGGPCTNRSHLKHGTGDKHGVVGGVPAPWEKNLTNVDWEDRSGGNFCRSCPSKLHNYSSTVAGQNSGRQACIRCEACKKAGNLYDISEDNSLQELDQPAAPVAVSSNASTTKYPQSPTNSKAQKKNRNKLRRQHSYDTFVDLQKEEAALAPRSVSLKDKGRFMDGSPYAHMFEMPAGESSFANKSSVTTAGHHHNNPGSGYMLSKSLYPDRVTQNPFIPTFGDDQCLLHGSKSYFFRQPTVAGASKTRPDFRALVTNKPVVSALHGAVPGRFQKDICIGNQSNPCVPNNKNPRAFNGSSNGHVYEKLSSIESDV

| SMILES | IC50 [1] [nM] | inhibition at 1 µM [2] [%] |
| --- | --- | --- |
| CC(C(O)c1ccc(O)cc1)N1CCC(Cc2ccccc2)CC1 (centres unmarked) [ifenprodil] | 2200 |  |
| C[C@]12N[C@H](Cc3ccccc31)c1ccccc12 [MK-801] |  | 75 |
